Reference: patent US10246453B2, “Benzenesulfonamide compounds and their use as therapeutic agents” (Xenon Pharmaceuticals Inc., priority 2016, dated 2019)
Structures can show the parent of a compound that is named as a salt. Where two headings read alike, the source gives them in different places.

What was measured:
[1] = target: NaV1.6 (Homo sapiens (Human), UniProt Q9UQD0); assay: Sodium Influx Assay (Flux), NaV1.6
[2] = target: NaV1.1 (Homo sapiens (Human), UniProt P35498); assay: Sodium Influx Assay (Flux), NaV1.1; type: cell-based; details: Trex HEK293 cells, ANG2 dye; arithmetic mean
[3] = target: NaV1.5 (Homo sapiens (Human), UniProt Q14524); assay: Sodium Influx Assay (Flux), NaV1.5; details: read-out: Flux NaV1.5 IC50; Trex HEK293 cells, ANG2 dye; arithmetic mean
Sequence of NaV1.5 (Q14524 other isoform, or with tags, fused parts or gaps): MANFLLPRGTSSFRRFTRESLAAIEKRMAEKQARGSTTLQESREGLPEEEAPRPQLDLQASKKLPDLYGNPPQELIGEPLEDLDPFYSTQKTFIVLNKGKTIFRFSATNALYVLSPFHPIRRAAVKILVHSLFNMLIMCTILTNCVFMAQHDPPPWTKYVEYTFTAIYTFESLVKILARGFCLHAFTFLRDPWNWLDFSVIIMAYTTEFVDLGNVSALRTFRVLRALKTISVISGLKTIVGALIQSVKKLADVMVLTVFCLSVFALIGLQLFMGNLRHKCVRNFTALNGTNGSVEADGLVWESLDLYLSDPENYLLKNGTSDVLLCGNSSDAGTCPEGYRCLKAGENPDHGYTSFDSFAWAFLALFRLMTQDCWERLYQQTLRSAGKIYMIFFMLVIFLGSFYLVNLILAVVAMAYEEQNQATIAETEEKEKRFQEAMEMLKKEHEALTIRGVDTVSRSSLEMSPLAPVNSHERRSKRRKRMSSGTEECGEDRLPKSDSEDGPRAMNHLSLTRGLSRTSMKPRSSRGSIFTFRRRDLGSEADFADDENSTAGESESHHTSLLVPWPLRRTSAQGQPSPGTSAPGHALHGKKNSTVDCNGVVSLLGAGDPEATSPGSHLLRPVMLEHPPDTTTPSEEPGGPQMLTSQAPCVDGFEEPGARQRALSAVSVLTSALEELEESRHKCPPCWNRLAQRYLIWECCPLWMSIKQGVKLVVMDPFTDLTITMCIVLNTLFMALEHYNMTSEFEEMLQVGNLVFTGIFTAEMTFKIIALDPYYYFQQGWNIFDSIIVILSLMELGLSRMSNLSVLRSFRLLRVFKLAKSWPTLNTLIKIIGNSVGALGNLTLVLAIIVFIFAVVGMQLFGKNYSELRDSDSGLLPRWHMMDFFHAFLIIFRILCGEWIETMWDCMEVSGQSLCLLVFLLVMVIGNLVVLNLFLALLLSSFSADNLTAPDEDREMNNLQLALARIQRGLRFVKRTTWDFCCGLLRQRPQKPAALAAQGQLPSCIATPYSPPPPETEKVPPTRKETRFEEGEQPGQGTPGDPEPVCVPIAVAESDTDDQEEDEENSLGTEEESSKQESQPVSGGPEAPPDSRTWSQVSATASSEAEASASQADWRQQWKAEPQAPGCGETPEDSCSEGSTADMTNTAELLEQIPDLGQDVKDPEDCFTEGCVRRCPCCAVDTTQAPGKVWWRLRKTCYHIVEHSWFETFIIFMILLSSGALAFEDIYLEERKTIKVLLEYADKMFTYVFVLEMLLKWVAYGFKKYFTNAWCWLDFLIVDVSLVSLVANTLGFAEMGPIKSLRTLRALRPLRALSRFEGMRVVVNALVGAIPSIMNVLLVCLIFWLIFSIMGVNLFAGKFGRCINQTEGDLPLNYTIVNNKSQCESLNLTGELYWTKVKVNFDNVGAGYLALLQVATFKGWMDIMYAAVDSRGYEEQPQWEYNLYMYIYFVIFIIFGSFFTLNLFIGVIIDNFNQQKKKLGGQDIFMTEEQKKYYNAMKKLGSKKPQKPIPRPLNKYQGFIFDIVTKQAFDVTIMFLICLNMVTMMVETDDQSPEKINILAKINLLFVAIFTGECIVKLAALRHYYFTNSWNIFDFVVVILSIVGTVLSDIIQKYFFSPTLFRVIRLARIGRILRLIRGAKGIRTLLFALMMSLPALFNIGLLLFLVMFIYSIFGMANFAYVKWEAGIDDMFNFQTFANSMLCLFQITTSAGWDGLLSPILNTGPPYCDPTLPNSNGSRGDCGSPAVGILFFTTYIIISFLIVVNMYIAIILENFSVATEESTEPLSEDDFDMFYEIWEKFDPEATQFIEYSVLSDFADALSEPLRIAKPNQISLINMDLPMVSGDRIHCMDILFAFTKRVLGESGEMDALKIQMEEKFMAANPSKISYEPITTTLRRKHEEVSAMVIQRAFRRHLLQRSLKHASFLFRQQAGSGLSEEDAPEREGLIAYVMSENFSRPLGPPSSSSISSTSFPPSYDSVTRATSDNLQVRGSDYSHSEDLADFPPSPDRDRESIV

[4] = read-out: Flux NaV1.6 IC50, Trex HEK293 cells, ANG2 dye, arithmetic mean

`C[C@@H]1CN(Cc2ccccc2F)CC[C@@H]1Oc1ccc(S(=O)(=O)Nc2nccs2)cc1Cl` (relative stereo) [Example 10A, 3-chloro-4-((cis-1-(2-fluorobenzyl)-3-methylpiperidin-4-yl)oxy)-N-(thiazol-2-yl)benzenesulfonamide] was tested, and the IC50 [1] was 1.27 µM.
`C[C@@H]1CN(Cc2ccccc2F)CC[C@H]1Oc1ccc(S(=O)(=O)Nc2nccs2)cc1Cl` (relative stereo) [Example 10B, 3-chloro-4-((trans-1-(2-fluorobenzyl)-3-methylpiperidin-4-yl)oxy)-N-(thiazol-2-yl)benzenesulfonamide] showed an IC50 [1] of 1.16 µM.
`C[C@H]1C[C@@H](Oc2ccc(S(=O)(=O)Nc3nccs3)cc2Cl)CCN1Cc1ccccc1` (relative stereo) [Example 72, 4-((cis-1-benzyl-2-methylpiperidin-4-yl)oxy)-3-chloro-N-(thiazol-2-yl)benzenesulfonamide] gave an IC50 [1, 4] of 6.07 µM, an IC50 [2] of 6.81 µM and an IC50 [3] of 13.5 µM.
In the case of `C[C@@H]1C[C@@H](Oc2ccc(S(=O)(=O)Nc3nccs3)cc2Cl)CCN1Cc1ccccc1` (relative stereo) [Example 73, 4-((trans-1-benzyl-2-methylpiperidin-4-yl)oxy)-3-chloro-N-(thiazol-2-yl)benzenesulfonamide], the IC50 [1, 4] is reported as 1.88 µM, the IC50 [2] is reported as 5.85 µM and the IC50 [3] is reported as 13.1 µM.
`C[C@@H]1CN(Cc2ccccc2)C[C@@H]1Nc1ccc(S(=O)(=O)Nc2nccs2)cc1Cl` (relative stereo) [Example 75, 4-((cis-1-benzyl-4-methylpyrrolidin-3-yl)amino)-3-chloro-N-(thiazol-2-yl)benzenesulfonamide] was tested, and the IC50 [1, 4] was 0.661 µM, the IC50 [2] was 4.19 µM and the IC50 [3] was 8.99 µM.
`CC1(C)CNCCC1Oc1ccc(S(=O)(=O)Nc2ncns2)cc1Cl` (centres unmarked) [Example 1, 3-chloro-4-((3,3-dimethylpiperidin-4-yl)oxy)-N-(1,2,4-thiadiazol-5-yl)benzenesulfonamide 2,2,2-trifluoroacetate] was tested, and the IC50 [1, 4] was 10.3 µM, the IC50 [2] was > 30 µM and the IC50 [3] was > 30 µM.
`Cc1cc(C)cc(CN2CCC(Oc3ccc(S(=O)(=O)Nc4ncns4)cc3Cl)C(C)(C)C2)c1` (centres unmarked) [Example 3, 3-chloro-4-((1-(3,5-dimethylbenzyl)-3,3-dimethylpiperidin-4-yl)oxy)-N-(1,2,4-thiadiazol-5-yl)benzenesulfonamide 2,2,2-trifluoroacetate] was tested, and the IC50 [1, 4] was 6.59 µM, the IC50 [2] was 20.8 µM and the IC50 [3] was 6.17 µM.
For `CC1(C)CN(Cc2cc(Cl)cc(Cl)c2)CCC1Oc1ccc(S(=O)(=O)Nc2ncns2)cc1Cl` (centres unmarked) [Example 4, 3-chloro-4-((1-(3,5-dichlorobenzyl)-3,3-dimethylpiperidin-4-yl)oxy)-N-(1,2,4-thiadiazol-5-yl)benzenesulfonamide 2,2,2-trifluoroacetate], the IC50 [1, 4] was > 30 µM, the IC50 [2] was > 30 µM and the IC50 [3] was 11 µM.
Work on `O=S(=O)(Nc1nccs1)c1ccc(OC2CCN(Cc3cccc(OC(F)F)c3)CC2)c(Cl)c1` [Example 5, 3-chloro-4-((1-(3-(difluoromethoxy)benzyl)piperidin-4-yl)oxy)-N-(thiazol-2-yl)benzenesulfonamide] yielded an IC50 [1, 4] of 1.36 µM, an IC50 [2] of 6.3 µM and an IC50 [3] of 4.37 µM.
`O=S(=O)(Nc1nccs1)c1ccc(OC2CCN(CC3CCCCC3)CC2)c(Cl)c1` [Example 6, 3-chloro-4-((1-(cyclohexylmethyl)piperidin-4-yl)oxy)-N-(thiazol-2-yl)benzenesulfonamide 2,2,2-trifluoroacetate] was tested, and the IC50 [1, 4] was 7.52 µM, the IC50 [2] was 12.2 µM and the IC50 [3] was > 30 µM.
In the case of `O=S(=O)(Nc1nccs1)c1ccc(OC2CCN(C3CCCCC3)CC2)c(Cl)c1` [Example 7, 3-chloro-4-((1-cyclohexylpiperidin-4-yl)oxy)-N-(thiazol-2-yl)benzenesulfonamide 2,2,2-trifluoroacetate], the IC50 [1, 4] is reported as 27.3 µM, the IC50 [2] is reported as > 30 µM and the IC50 [3] is reported as > 30 µM.
In the case of `O=S(=O)(Nc1nccs1)c1ccc(OC2CCN(Cc3ccccc3C(F)(F)F)CC2)c(Cl)c1` [Example 12, 3-chloro-N-(thiazol-2-yl)-4-((1-(2-(trifluoromethyl)benzyl)piperidin-4-yl)oxy)benzenesulfonamide], the IC50 [1, 4] is reported as 13.3 µM, the IC50 [2] is reported as 13.3 µM and the IC50 [3] is reported as 6.35 µM.
In the case of `O=S(=O)(Nc1nccs1)c1ccc(OC2CCN(Cc3ccccc3Cl)CC2)c(Cl)c1` [Example 13, 3-chloro-4-((1-(2-chlorobenzyl)piperidin-4-yl)oxy)-N-(thiazol-2-yl)benzenesulfonamide], the IC50 [1, 4] is reported as 1.7 µM, the IC50 [2] is reported as 6.83 µM and the IC50 [3] is reported as 5.09 µM.
`Cc1ccnc(CN2CCC(Oc3ccc(S(=O)(=O)Nc4nccs4)cc3Cl)CC2)c1` [Example 14, 3-chloro-4-((1-((4-methylpyridin-2-yl)methyl)piperidin-4-yl)oxy)-N-(thiazol-2-yl)benzenesulfonamide] was tested, and the IC50 [1, 4] was 0.878 µM, the IC50 [2] was > 30 µM and the IC50 [3] was 10.7 µM.
Compound `O=S(=O)(Nc1nccs1)c1ccc(O[C@H]2C[C@H]3CC[C@@H](C2)N3Cc2ccccc2)c(Cl)c1` [Example 15, 4-(((1R,3r,5S)-8-benzyl-8-azabicyclo[3.2.1]octan-3-yl)oxy)-3-chloro-N-(thiazol-2-yl)benzenesulfonamide] has an IC50 [1, 4] of 2.57 µM, an IC50 [2] of 9.23 µM and an IC50 [3] of 23.9 µM.
In the case of `O=S(=O)(Nc1nccs1)c1cc(Cl)c(O[C@@H]2C[C@H]3CC[C@@H](C2)N3Cc2cccc(Cl)c2)cc1F` [Example 18, 5-chloro-4-(((1R,3s,5S)-8-(3-chlorobenzyl)-8-azabicyclo[3.2.1]octan-3-yl)oxy)-2-fluoro-N-(thiazol-2-yl)benzenesulfonamide 2,2,2-trifluoroacetate], the IC50 [1, 4] is reported as 1.06 µM, the IC50 [2] is reported as > 30 µM and the IC50 [3] is reported as > 30 µM.
Compound `CC1(Oc2ccc(S(=O)(=O)Nc3nccs3)cc2Cl)CCN(Cc2ccccc2)CC1` [Example 19, 4-((1-benzyl-4-methylpiperidin-4-yl)oxy)-3-chloro-N-(thiazol-2-yl)benzenesulfonamide] has an IC50 [1, 4] of 3.17 µM, an IC50 [2] of 4.96 µM and an IC50 [3] of 4.68 µM.
`CC1(Oc2ccc(S(=O)(=O)Nc3nccs3)cc2Cl)CCN(Cc2cccc(Cl)c2)CC1` [Example 20, 3-chloro-4-((1-(3-chlorobenzyl)-4-methylpiperidin-4-yl)oxy)-N-(thiazol-2-yl)benzenesulfonamide] showed an IC50 [1, 4] of 5.62 µM, an IC50 [2] of 5.93 µM and an IC50 [3] of 6.1 µM.
For `CC1(Oc2ccc(S(=O)(=O)Nc3nccs3)cc2Cl)CCN(Cc2cccc(C(F)F)c2)CC1` [Example 21, 3-chloro-4-((1-(3-(difluoromethyl)benzyl)-4-methylpiperidin-4-yl)oxy)-N-(thiazol-2-yl)benzenesulfonamide], the IC50 [1, 4] was 3.18 µM, the IC50 [2] was 3.15 µM and the IC50 [3] was 4.69 µM.
Compound `O=S(=O)(Nc1nccs1)c1ccc(OC2CCN(Cc3ccc(F)cc3)CC2)c(Cl)c1` [Example 22, 3-chloro-4-((1-(4-fluorobenzyl)piperidin-4-yl)oxy)-N-(thiazol-2-yl)benzenesulfonamide 2,2,2-trifluoroacetate] has an IC50 [1, 4] of 3.64 µM, an IC50 [2] of 14.8 µM and an IC50 [3] of 16.1 µM.
In the case of `CC(c1ccccc1)N1CCC(Oc2ccc(S(=O)(=O)Nc3nccs3)cc2Cl)CC1` (centres unmarked) [Example 52, 3-chloro-4-((1-(1-phenylethyl)piperidin-4-yl)oxy)-N-(thiazol-2-yl)benzenesulfonamide], the IC50 [1, 4] is reported as 0.305 µM and the IC50 [3] is reported as 14.4 µM.
Work on `Cc1cc(S(=O)(=O)Nc2cscn2)c(F)cc1N(C)[C@H]1CCN(Cc2ccccc2O)C1` [Example 113, (S)-2-fluoro-4-((1-(2-hydroxybenzyl)-pyrrolidin-3-yl)(methyl)amino)-5-methyl-N-(thiazol-4-yl)benzenesulfonamide] yielded an IC50 [1, 4] of 0.258 µM and an IC50 [2] of 17.9 µM.
Compound `COc1cccc(CN2CC[C@H](N(C)c3cc(F)c(S(=O)(=O)Nc4cscn4)cc3Cl)C2)c1` [Example 219, (S)-5-chloro-2-fluoro-4-((1-(3-methoxybenzyl)pyrrolidin-3-yl)(methyl)amino)-N-(thiazol-4-yl)benzenesulfonamide] has an IC50 [1, 4] of 3.2 µM and an IC50 [2] of 7.53 µM.
`O=S(=O)(Nc1cscn1)c1cc(Cl)c(OC2CCN(Cc3ccccc3)CC2)cc1F` [Example 238, 4-((1-benzylpiperidin-4-yl)oxy)-5-chloro-2-fluoro-N-(thiazol-4-yl)benzenesulfonamide 2,2,2-trifluoroacetate] was tested, and the IC50 [1, 4] was 2.1 µM and the IC50 [2] was 27.8 µM.
`O=S(=O)(Nc1cscn1)c1ccc(O[C@@H]2C[C@H]3CC[C@@H](C2)N3Cc2cccc(C(F)F)c2)c(Cl)c1` [Example 256, 3-chloro-4-(((1R,3s,5S)-8-(3-(difluoromethyl)benzyl)-8-azabicyclo[3.2.1]octan-3-yl)oxy)-N-(thiazol-4-yl)benzenesulfonamide] showed an IC50 [3] of 6.72 µM.
With `Cc1cc(S(=O)(=O)Nc2cscn2)c(F)cc1N(C)[C@@H]1CCN(Cc2ccccc2)C1` [Example 272, (R)-4-((1-benzylpyrrolidin-3-yl)(methyl)amino)-2-fluoro-5-methyl-N-(thiazol-4-yl)benzenesulfonamide] the IC50 [1, 4] was 3.77 µM.
For `Cc1cc(S(=O)(=O)Nc2cscn2)ccc1N(C)[C@H]1CCN(Cc2ccccc2)C1` [Example 284, (S)-4-((1-benzylpyrrolidin-3-yl)(methyl)amino)-3-methyl-N-(thiazol-4-yl)benzenesulfonamide 2,2,2-trifluoroacetate], the IC50 [1, 4] was 0.718 µM and the IC50 [2] was 10.5 µM.
`C[C@H](c1ccccc1)N1CCC(Oc2ccc(S(=O)(=O)Nc3ccon3)cc2Cl)CC1` [Example 305, (R)-3-chloro-N-(isoxazol-3-yl)-4-((1-(1-phenylethyl)piperidin-4-yl)oxy)benzenesulfonamide formate] was tested, and the IC50 [3] was > 30 µM.
`Cc1cc(S(=O)(=O)Nc2cscn2)c(F)cc1N(C)[C@H]1CCN(Cc2cccc(F)c2)C1` [compound 157, (S)-2-fluoro-4-((1-(3-fluorobenzyl)pyrrolidin-3-yl)(methyl)amino)-5-methyl-N-(thiazol-4-yl)benzenesulfonamide] showed an IC50 [1, 4] of 0.211 µM and an IC50 [3] of 18.6 µM.
